Measurements: patent publication US4544747A, “Quinoline carboxylic acid derivatives” (Otsuka Pharmaceutical Company, Limited, priority 1979, dated 1985)
≈ marks a conversion by molar mass, not a printed value.

Legend:
rats = assay: Acute toxicity test, oral, rats; conditions: rats (Wister strain, male)
[1] = tested on: Erwinia carotovora (soft-rot causing bacterium); assay: Antimicrobial-activity test 3, incidence of soft rot on inoculated Japanese radish disks; conditions: 28° C.
Mycosphaerella melonis = assay: Antimicrobial-activity test 2, mycelial disc on agar plate, fungi (M: gummy stem blight of melon); assay type: cell-based; conditions: 48 h, complete inhibition of mycelial growth, 2 days, PDA medium, read-out: Minimum inhibitory concentration
Description: […] blight of melon (Mycosphaerella melonis)

Phytophthora capsici = assay: Antimicrobial-activity test 2, mycelial disc on agar plate, fungi (J: leaf blight of cucumber); assay type: cell-based; conditions: 48 h, complete inhibition of mycelial growth, 2 days, PDA medium, read-out: Minimum inhibitory concentration
Description: J: Leaf blight of cucumber (Phytophthora capsici)

Helminthosporium oryzae = assay: Antimicrobial-activity test 2, mycelial disc on agar plate, fungi (H: Helminthosporium leaf spot); conditions: Bipolaris oryzae, 48 h, read-out: Minimum inhibitory concentration
Pyrisularia oryzae = assay: microbe, parasite or virus in culture; assay type: cell-based; conditions: Pyricularia oryzae, 48 h, read-out: Minimum inhibitory concentration
Erwinia carotovora = assay: Antimicrobial-activity test 2, agar dilution plate method, bacteria (A: soft rot of vegetable); assay type: cell-based; conditions: Pectobacterium carotovorum, 10^8 cells/ml, PDA medium, read-out: Minimum inhibitory concentration
Description: A: Soft rot of vegetable (Erwinia carotovora)

Phytophthora melonis = assay: microbe, parasite or virus in culture; assay type: cell-based; conditions: 48 h, read-out: Minimum inhibitory concentration
Sclerotinia sclerotiorum = assay: Antimicrobial-activity test 2, mycelial disc on agar plate, fungi (L: stem rot of eggplant); assay type: cell-based; conditions: 48 h, complete inhibition of mycelial growth, 2 days, PDA medium, read-out: Minimum inhibitory concentration
Description: L: Stem rot of eggplant (Sclerotinia sclerotiorum)

Xanthomonas oryzae = assay: microbe, parasite or virus in culture; assay type: cell-based; conditions: read-out: Minimum inhibitory concentration
Alternaria solani = assay: Antimicrobial-activity test 2, mycelial disc on agar plate, fungi (N: early blight of tomato); assay type: cell-based; conditions: 48 h, complete inhibition of mycelial growth, 2 days, PDA medium, read-out: Minimum inhibitory concentration
Description: N: Early blight of tomato (Alternaria solani)

[2] = tested on: Colletotrichum lagenarium; assay: Antimicrobial-activity test 2, mycelial disc on agar plate, fungi (K: anthracnose of cucumber); assay type: cell-based; conditions: Colletotrichum orbiculare, 48 h, complete inhibition of mycelial growth, 2 days, PDA medium, read-out: Minimum inhibitory concentration
Description: K: Anthracnose of cucumber (Colletotrichum lagenarium)

Pseudomonas lachrymans = assay: Antimicrobial-activity test 2, agar dilution plate method, bacteria (F: angular leaf spot of cucumber); assay type: cell-based; conditions: 10^8 cells/ml, PDA medium, read-out: Minimum inhibitory concentration
Description: F: Angular leaf spot of cucumber (Pseudomonas lachrymans)

Xanthomonas citri = assay: Antimicrobial-activity test 2, agar dilution plate method, bacteria (D: citrus canker); conditions: read-out: Minimum inhibitory concentration
Pseudomonas solanacearum = assay: microbe, parasite or virus in culture; assay type: cell-based; conditions: Ralstonia solanacearum, read-out: Minimum inhibitory concentration
Xanthomonas pruni = assay: Antimicrobial-activity test 2, agar dilution plate method, bacteria (C: peach bacterial spot); assay type: cell-based; conditions: Xanthomonas arboricola, 10^8 cells/ml, PDA medium, read-out: Minimum inhibitory concentration
Description: C: Peach bacterial spot (Xanthomonas pruni)

[3] = 15.6 μg/ml, test specimen 1, 24 hours
[4] = 15.6 μg/ml, test specimen 2, 24 hours
[5] = 15.6 μg/ml, test specimen 3, 24 hours
[6] = 15.6 μg/ml, test specimen 4, 24 hours
[7] = 15.6 μg/ml, test specimen 5, 24 hours
[8] = 31.3 μg/ml, test specimen 1, 24 hours
[9] = 31.3 μg/ml, test specimen 2, 24 hours
[10] = 31.3 μg/ml, test specimen 3, 24 hours
[11] = 31.3 μg/ml, test specimen 4, 24 hours
[12] = 31.3 μg/ml, test specimen 5, 24 hours
[13] = 62.5 μg/ml, test specimen 1, 24 hours
[14] = 62.5 μg/ml, test specimen 2, 24 hours
[15] = 62.5 μg/ml, test specimen 3, 24 hours
[16] = 62.5 μg/ml, test specimen 4, 24 hours
[17] = 62.5 μg/ml, test specimen 5, 24 hours
[18] = 125 μg/ml, test specimen 1, 24 hours
[19] = 125 μg/ml, test specimen 2, 24 hours
[20] = 125 μg/ml, test specimen 3, 24 hours
[21] = 125 μg/ml, test specimen 4, 24 hours
[22] = 125 μg/ml, test specimen 5, 24 hours

Q: How did the “estimated LD50” value (rats) turn out when `CCn1cc(C(=O)O)c(=O)c2ccc(N3CCNCC3)c(C)c21` [Compound 1, 1-Ethyl-7-(1-piperazinyl)-8-methyl-4-oxo-1,4-dihydroquinoline-3-carboxylic acid] was run?
A: not less than 500 mg/kg

Q: Which results are given for `[H]/N=C(/N)N[C@H]1[C@H](O)[C@@H](O)[C@H](O[C@@H]2O[C@@H](C)[C@](O)(C=O)[C@H]2O[C@@H]2O[C@@H](CO)[C@H](O)[C@@H](O)[C@@H]2NC)[C@@H](N/C(N)=N\[H])[C@@H]1O` [Streptomycin, reference compound]?
A: Disease incidence index [1, 3]: 3; Disease incidence index [1, 4]: 3; Disease incidence index [1, 5]: 3; Disease incidence index [1, 6]: 3; Disease incidence index [1, 7]: 3; Disease incidence index [1, 8]: 2; Disease incidence index [1, 9]: 2; Disease incidence index [1, 10]: 3; Disease incidence index [1, 11]: 3; Disease incidence index [1, 12]: 3; Disease incidence index [1, 13]: 1 (0< ≤1/3); Disease incidence index [1, 14]: 1 (0< ≤1/3); Disease incidence index [1, 15]: 2; Disease incidence index [1, 16]: 2; Disease incidence index [1, 17]: 2; Disease incidence index [1, 18]: 1 (0< ≤1/3); Disease incidence index [1, 19]: 1 (0< ≤1/3); Disease incidence index [1, 20]: 1 (0< ≤1/3); Disease incidence index [1, 21]: 1 (0< ≤1/3); Disease incidence index [1, 22]: 1 (0< ≤1/3)

Q: `CCn1cc(C(=O)O)c(=O)c2ccc(Cl)c(C)c21` [Compound 2, 1-ethyl-7-chloro-8-methyl-4-oxo-1,4-dihydroquinoline-3-carboxylic acid] was tested. Which MIC (Mycosphaerella melonis) did it give?
A: 50 µg/mL (≈ 188 µM)

Q: And the MIC (Phytophthora capsici)?
A: 25 µg/mL (≈ 94.1 µM)

Q: What about the MIC (Helminthosporium oryzae) of the same compound?
A: 50 µg/mL (≈ 188 µM)

Q: What about the “estimated LD50” value (rats) of the same compound?
A: not less than 500 mg/kg

Q: What about the MIC (Pyrisularia oryzae) of the same compound?
A: 50 µg/mL (≈ 188 µM)

Q: What about the Disease incidence index [1, 3] of the same compound?
A: 0 (0)

Q: What about the Disease incidence index [1, 4] of the same compound?
A: 1 (0< ≤1/3)

Q: What about the Disease incidence index [1, 5] of the same compound?
A: 1 (0< ≤1/3)

Q: And the Disease incidence index [1, 6]?
A: 1 (0< ≤1/3)

Q: What about the Disease incidence index [1, 7] of the same compound?
A: 1 (0< ≤1/3)

Q: And the Disease incidence index [1, 8]?
A: 0 (0)

Q: And the Disease incidence index [1, 9]?
A: 0 (0)

Q: And the Disease incidence index [1, 10]?
A: 0 (0)

Q: And the Disease incidence index [1, 11]?
A: 1 (0< ≤1/3)

Q: What about the Disease incidence index [1, 12] of the same compound?
A: 1 (0< ≤1/3)

Q: And the Disease incidence index [1, 13]?
A: 0 (0)

Q: And the Disease incidence index [1, 14]?
A: 0 (0)

Q: What about the Disease incidence index [1, 15] of the same compound?
A: 0 (0)

Q: And the Disease incidence index [1, 16]?
A: 0 (0)

Q: What about the Disease incidence index [1, 17] of the same compound?
A: 1 (0< ≤1/3)

Q: What about the Disease incidence index [1, 18] of the same compound?
A: 0 (0)

Q: What about the Disease incidence index [1, 19] of the same compound?
A: 0 (0)

Q: And the Disease incidence index [1, 20]?
A: 0 (0)

Q: What about the Disease incidence index [1, 21] of the same compound?
A: 0 (0)

Q: And the Disease incidence index [1, 22]?
A: 1 (0< ≤1/3)

Q: And the MIC (Erwinia carotovora)?
A: 0.2 µg/mL (≈ 0.753 µM)

Q: And the MIC (Phytophthora melonis)?
A: 12.5 µg/mL (≈ 47 µM)

Q: What about the MIC (Sclerotinia sclerotiorum) of the same compound?
A: 100 µg/mL (≈ 376 µM)

Q: What about the MIC (Xanthomonas oryzae) of the same compound?
A: 0.2 µg/mL (≈ 0.753 µM)

Q: And the MIC (Alternaria solani)?
A: 50 µg/mL (≈ 188 µM)

Q: And the MIC [2]?
A: 100 µg/mL (≈ 376 µM)

Q: And the MIC (Pseudomonas lachrymans)?
A: 100 µg/mL (≈ 376 µM)

Q: What about the MIC (Xanthomonas citri) of the same compound?
A: 0.1 µg/mL (≈ 0.376 µM)

Q: And the MIC (Pseudomonas solanacearum)?
A: 0.1 µg/mL (≈ 0.376 µM)

Q: And the MIC (Xanthomonas pruni)?
A: 0.4 µg/mL (≈ 1.51 µM)
